Assay results taken from patent publication US20110150798A1, “COMPOSITIONS AND METHODS FOR INCREASING CELLULAR FAR AND BLEACHING SKIN” (priority 2009, published 2011).

How the values were obtained:
[1] = tested on: keratinocytes; assay: Lipid production in keratinocytes, Oil Red O staining; format: cell-based; settings: 2.5 uM, 48 hours, compared to DMSO control, FIG. 1
Description: FIG. 1 is a photograph of keratinocytes treated with troglitazone and stained for lipids.

[2] = tested on: human preadipocytes; assay: Lipid production in preadipocytes, Oil Red O staining; format: cell-based; settings: 1.1 uM, about 48 hours, FIG. 2 and FIG. 3
Description: FIG. 2 is a photograph of human preadipocytes treated with troglitazone and stained for lipids. FIG. 3 is a photograph of human preadipocytes treated with troglitazone and stained for lipids.

Cc1c(C)c2c(c(C)c1O)CCC(C)(COc1ccc(CC3SC(=O)NC3=O)cc1)O2 (racemic) [troglitazone, (RS)-5-(4-[(6-hydroxy-2,5,7,8-tetramethylchroman-2-yl)methoxy]benzyl)thiazolidine-2,4-dione]
lipid production in the cells (lipid droplets stained with Oil Red O) [1]: increase in lipid production
lipid production (quantity and size of lipid droplets stained with Oil Red O) [2]: increase in the lipid production
